Earlier results on seven molecules are cited in patent publication US20190254579A1, “INTEGRATED DEVICES TO CONTINUOUSLY MEASURE BOUND AND UNBOUND ANALYTE FRACTIONS IN BIOFLUIDS” (Eccrine Systems, Inc., priority 2015, published 2019).

In brackets after ≈: the same amount, converted by molar mass. Where two headings read alike, the source gives them in different places.

For data set [1] the following is noted: water/octanol.

In the case of `CCCCCC/C=C\CCCCCCCC(=O)O` [Palmitoleic Acid], the “Solubility in Water” value (stated in words) was “Low”. Moreover, in data set [1], the log partition coefficient (logP) is reported as 6.4.

`CCCCC/C=C\C/C=C\CCCCCCCC(=O)OC(CO)CO` [2-Linoleoyl Glycerol]: the logP in data set [1] was 5.6.

Turning to `CCCCCCCC/C=C\CCCCCCCC(=O)O` [Oleic Acid], the logP in data set [1] was 7.64.

Take `CCCCC/C=C\C/C=C\C/C=C\C/C=C\CCCC(=O)O` [Arachidonic Acid]: the “Solubility in Water” value (stated in words) is “Negligible”. In data set [1], the logP is 7.

On to `CCCCCC[C@@H](O)C/C=C\CCCCCCCC(=O)O` [Ricinoleic Acid], for which the “Solubility in Water” value is 3460 µg/mL (≈ 11.6 mM). For the same molecule, in data set [1], the logP is recorded as 5.7.

For the molecule `CC(C)CCCC(C)CCCC(C)CCCC(C)CC(=O)O` (stereo not shown) [Phytanic Acid], in data set [1], the logP is 8.3.

As for `CCCC/C=C\CCCCCCCC(=O)O` [Myristoleic Acid], the lipophilicity (logP) in data set [1] was 5.1.

The term logP denotes a log measure of how a compound divides between an organic and an aqueous phase.
